Measured values as given in ChEMBL document CHEMBL6087476, “Positive Charge-Concentrated Dimeric Lipopeptides with Enhanced Protease Resistance: A Potential Solution for Systemic Bacterial Infections” (J Med Chem, 2025).
≈ marks a conversion by molar mass, not a printed value. Calls of active or inactive are those of the source. The rule behind the calls is not given here.

Columns and labels:
Staphylococcus aureus [1] = assay: Antimicrobial activity against methicillin-resistant Staphylococcus aureus 43300 assessed as increase in absorbance incubated for 20 to 22 hrs; type: functional; conditions: time 20-22 hrs
[2] = Cytotoxicity against porcine IPEC-J2 cells assessed as cell death measured after 18 to 24 hrs by MTT assay; type: functional; conditions: Sus scrofa, time 18-24 hrs
Staphylococcus aureus [3] = assay: Antimicrobial activity against Staphylococcus aureus 11011 assessed as increase in absorbance incubated for 20 to 22 hrs; type: functional; conditions: time 20-22 hrs
Escherichia coli [4] = assay: Antimicrobial activity against Escherichia coli ATCC 25922 assessed as increase in absorbance incubated for 20 to 22 hrs in presence of NH4+ physiological salt; type: functional, organism-based; conditions: time 20-22 hrs
Escherichia coli [5] = assay: Antimicrobial activity against Escherichia coli ATCC 25922 assessed as increase in absorbance incubated for 4 hrs in presence of 12.5% serum; type: functional, organism-based
Escherichia coli [6] = assay: Antimicrobial activity against Escherichia coli ATCC 25922 assessed as increase in absorbance at 8 mg/ml incubated for 8 hrs in presence of trypsin; type: functional, organism-based
Escherichia coli [7] = assay: Antimicrobial activity against Escherichia coli ATCC 25922 assessed as increase in absorbance at 8 mg/ml incubated for 8 hrs in presence of chymotrypsin; type: functional, organism-based
Chymotrypsin [8] = biological target: T1, Chymotrypsin (Homo sapiens, UniProt Q99895+P17538+P40313+Q6GPI1); assay: Stability of compound assessed as chymotrypsin (unknown origin)-mediated compound structural integrity change at 8 mg/ml incubated for 1 to 8 hrs by 16.5% tricine-SDS-PAGE analysis; type: ADME, protein assay; conditions: time 1-8 hrs
Chymotrypsin [9] = biological target: T1, Chymotrypsin; assay: Stability of compound assessed as chymotrypsin (unknown origin)-mediated compound structural integrity change at 8 mg/ml incubated for 1 to 8 hrs by RP-HPLC analysis; type: ADME, protein assay; conditions: time 1-8 hrs
Escherichia coli [10] = assay: Antibiofilm activity against Escherichia coli ATCC 25922 biofilm assessed as inhibition of biofilm formation at 2 uM; type: functional, organism-based
Escherichia coli [11] = assay: Antibiofilm activity against Escherichia coli ATCC 25922 biofilm assessed as removal of matured biofilm at 16 uM; type: functional, organism-based
Escherichia coli [12] = assay: Antimicrobial activity against Escherichia coli ATCC 25922 assessed as increase in absorbance at MIC concentration in presence of […] ug/ml Lipopolysaccharide incubated for 8 hrs; type: functional, organism-based; conditions: dose 64.0 µg/ml
Cell membrane [13] = assay: Induction of Outer membrane permeability in Escherichia coli ATCC 25922 incubated for 30 mins by N-phenyl-1-naphthylamine (NPN) uptake assay; type: subcellular; conditions: dose 1-16 µM
Cell membrane [14] = assay: Induction of depolarization of cytoplasmic membrane (CM) in Escherichia coli ATCC 25922 assessed as fluorescence changes at 1/2 to 3 times of MIC by fluorescent probe DiSC3-5 assay; type: subcellular; conditions: time 1000-3000 sec
Cell membrane [15] = assay: Induction of depolarization of cytoplasmic membrane (CM) in Escherichia coli ATCC 25922 assessed as fluorescence changes at 1/2 to 3 times of MIC measured after 1000 to 3000 seconds by fluorescent probe DiSC3-5 assay; type: subcellular; conditions: time 1000-3000 sec
Escherichia coli [16] = assay: Induction of ROS accumulation in Escherichia coli ATCC 25922 at 4 uM incubated for 30 mins by DCFH-DA assay; type: functional, organism-based
Escherichia coli [17] = assay: Inhibition of respiratory chain dehydrogenase (RCD) activity in Escherichia coli ATCC 25922 at 4 uM incubated for 90 mins by TTC assay
Escherichia coli [18] = assay: Reduction in intracellular ATP level in Escherichia coli ATCC 25922 at 2 uM measured after 1 hr incubation by Enhanced ATP assay kit; type: functional; design: scale not given: the % may be the effect or the level left
Escherichia coli [19] = assay: Bactericidal activity against Escherichia coli ATCC 25922 assessed as reduction in bacterial viability; type: functional, organism-based
Escherichia coli [20] = assay: Bactericidal activity against Escherichia coli ATCC 25922 assessed as reduction in bacterial viability at 4 uM measured within 1 hr; type: functional
Escherichia coli [21] = assay: Bactericidal activity against Escherichia coli ATCC 25922 assessed as reduction in bacterial viability at 4 uM measured within 2 hrs; type: functional, organism-based
[22] = Toxicity in ICR mouse assessed as slight manifestation of stooping at 20 mg/kg, ip measured within 1 hr; type: organism-based; conditions: in vivo
[23] = Toxicity in ICR mouse assessed as humpbacking at 20 mg/kg, ip measured within 1 hr; type: organism-based; conditions: in vivo
[24] = Toxicity in ICR mouse assessed as slight manifestation of stooping at 20 mg/kg, ip measured after 1 hr; type: organism-based; conditions: in vivo
[25] = Toxicity in ICR mouse assessed as humpbacking at 20 mg/kg, ip measured after 1 hr; type: organism-based; conditions: in vivo
[26] = Toxicity in ICR mouse assessed as reduced mobility at 20 mg/kg, ip measured after 1 hr; type: organism-based; conditions: in vivo
[27] = Toxicity in ICR mouse assessed as liver weight change at 5 to 20 mg/kg, ip measured after 3 days; type: organism-based; conditions: in vivo, 72 h, dose 5-20 mg/kg, time 3 day
[28] = Toxicity in ICR mouse assessed as alanine aminotransferase (ALT) level in serum at 5 to 20 mg/kg, ip measured after 3 days; type: organism-based; conditions: in vivo, 72 h, dose 5-20 mg/kg, time 3 day
[29] = Toxicity in ICR mouse assessed as aspartate aminotransferase (AST) level in serum at 5 to 20 mg/kg, ip measured after 3 days; type: organism-based; conditions: in vivo, 72 h, dose 5-20 mg/kg, time 3 day
[30] = Toxicity in ICR mouse assessed as blood urea nitrogen (BUN) level in serum at 5 to 20 mg/kg, ip measured after 3 days; type: organism-based; conditions: in vivo, 72 h, dose 5-20 mg/kg, time 3 day
[31] = Toxicity in ICR mouse assessed as hepatic cords morphology at 5 to 20 mg/kg, ip measured after 3 days by histopathological H and E staining based assay; type: organism-based; conditions: in vivo, 72 h, dose 5-20 mg/kg, time 3 day
Escherichia coli [32] = assay: Antibacterial activity against Escherichia coli ATCC 25922 injected intraperitoneally in ICR mouse assessed as reduction bacterial load in liver at 10 mg/kg, ip measured after 12 hrs by H and E staining based assay; type: functional, organism-based
Escherichia coli [33] = assay: Antibacterial activity against Escherichia coli ATCC 25922 injected intraperitoneally in ICR mouse assessed as reduction bacterial load in spleen at 10 mg/kg, ip measured after 12 hrs by H and E staining based assay; type: functional, organism-based
Escherichia coli [34] = assay: Antibacterial activity against Escherichia coli ATCC 25922 injected intraperitoneally in ICR mouse assessed as reduction bacterial load in lung at 10 mg/kg, ip measured after 12 hrs by H and E staining based assay; type: functional, organism-based
Mus musculus [35] = assay: Anti-inflammatory activity against Escherichia coli ATCC 25922-induced peritonitis ICR mouse model assessed as decrease in IL-1 beta level in serum spleen at 10 mg/kg, ip measured after 12 hrs; type: functional, organism-based
Mus musculus [36] = assay: Anti-inflammatory activity against Escherichia coli ATCC 25922-induced peritonitis ICR mouse model assessed as decrease in TNF-alpha level in serum spleen at 10 mg/kg, ip measured after 12 hrs; type: functional, organism-based
Escherichia coli [37] = assay: Antibacterial activity against Escherichia coli ATCC 25922 injected intraperitoneally in ICR mouse assessed as reduction in symptoms by measuring disorganized hepatic cords in liver at 10 mg/kg, ip measured after 12 hrs by H and E staining based assay; type: functional, organism-based
Escherichia coli [38] = assay: Antibacterial activity against Escherichia coli ATCC 25922 injected intraperitoneally in ICR mouse assessed as reduction in symptoms by measuring atrophy of renal glomeruli at 10 mg/kg, ip measured after 12 hrs by H and E staining based assay; type: functional, organism-based

Work on `CCCCCCCCCC(=O)NCCCC[C@H](N)C(=O)NCC(=O)NCC(=O)NCC(=O)N[C@H](CCCNC(=N)N)C(=O)N[C@@H](CCCNC(=N)N)C(=O)N[C@@H](CCCNC(=N)N)C(=O)N1CCC[C@H]1C(=O)N[C@@H](CSSC[C@H](NC(=O)[C@@H]1CCCN1C(=O)[C@H](CCCNC(=N)N)NC(=O)[C@H](CCCNC(=N)N)NC(=O)[C@@H](CCCNC(=N)N)NC(=O)CNC(=O)CNC(=O)CNC(=O)[C@@H](N)CCCCNC(=O)CCCCCCCCC)C(=O)O)C(=O)O` yielded an MIC (Staphylococcus aureus [1]) of 4 µM (≈ 9.12 µg/mL), an IC10 [2] of 256 µM and an MIC (Staphylococcus aureus [3]) of 8 µM (≈ 18.2 µg/mL). For the same molecule, the Activity (Escherichia coli [4]) was “Active; C-C10)C-C Demonstrated Superior Physiological Salt Tolerance In Comparison To (N-C10)C-C”, the Activity (Escherichia coli [5]) was “Active” and the Activity (Escherichia coli [6]) was “Active; Negligible Alteration In Mic Values Found”. For the same molecule, the Activity (Escherichia coli [7]) was “Active; Negligible Alteration In Mic Values Found”, the Stability (Chymotrypsin [8]) was “Stable” and the Stability (Chymotrypsin [9]) was “Stable”. For the same molecule, the Activity (Escherichia coli [10]) was “Active”, the Activity (Escherichia coli [11]) was “Active” and the Activity (Escherichia coli [12]) was “inactive”. The Activity (Cell membrane [13]) was “Dose-dependent-effect”, the Activity (Cell membrane [14]) was “Time-dependent-effect” and the Activity (Cell membrane [15]) was “Dose-dependent-effect”. The Activity (Escherichia coli [16]) was “Active”, the inhibition (Escherichia coli [17]) was “Active” and the Activity (Escherichia coli [18]) was roughly 40%. For the same molecule, the Activity (Escherichia coli [19]) was “Dose-dependent-effect”, the Activity (Escherichia coli [20]) was 100% and the Activity (Escherichia coli [21]) was “inactive”. The Activity [22] was “Toxic”, the Activity [23] was “Toxic” and the Activity [24] was “Non-toxic”. The Activity [25] was “Non-toxic”, the Activity [26] was “Non-toxic” and the Activity [27] was “Non-toxic”. For the same molecule, the Activity [28] was “Non-toxic”, the Activity [29] was “Non-toxic” and the Activity [30] was “Non-toxic”. For the same molecule, the Activity [31] was “Non-toxic”, the Activity (Escherichia coli [32]) was “Active” and the Activity (Escherichia coli [33]) was “Active”. For the same molecule, the Activity (Escherichia coli [34]) was “Active”, the Activity (Mus musculus [35]) was “Active” and the Activity (Mus musculus [36]) was “Active”. The Activity (Escherichia coli [37]) was “Active” and the Activity (Escherichia coli [38]) was “Active”.
